Active and inactive are the calls of the source. The calls are words filed in the database; no cut-off is given here.
Experiments:
[1] = molecular target: T1, Metabotropic glutamate receptor 5 (Homo sapiens, UniProt P41594); test: Antagonist activity against mGlu5 receptor assessed as inhibition of calcium mobilization
Target sequence in this assay (P41594 whole entry): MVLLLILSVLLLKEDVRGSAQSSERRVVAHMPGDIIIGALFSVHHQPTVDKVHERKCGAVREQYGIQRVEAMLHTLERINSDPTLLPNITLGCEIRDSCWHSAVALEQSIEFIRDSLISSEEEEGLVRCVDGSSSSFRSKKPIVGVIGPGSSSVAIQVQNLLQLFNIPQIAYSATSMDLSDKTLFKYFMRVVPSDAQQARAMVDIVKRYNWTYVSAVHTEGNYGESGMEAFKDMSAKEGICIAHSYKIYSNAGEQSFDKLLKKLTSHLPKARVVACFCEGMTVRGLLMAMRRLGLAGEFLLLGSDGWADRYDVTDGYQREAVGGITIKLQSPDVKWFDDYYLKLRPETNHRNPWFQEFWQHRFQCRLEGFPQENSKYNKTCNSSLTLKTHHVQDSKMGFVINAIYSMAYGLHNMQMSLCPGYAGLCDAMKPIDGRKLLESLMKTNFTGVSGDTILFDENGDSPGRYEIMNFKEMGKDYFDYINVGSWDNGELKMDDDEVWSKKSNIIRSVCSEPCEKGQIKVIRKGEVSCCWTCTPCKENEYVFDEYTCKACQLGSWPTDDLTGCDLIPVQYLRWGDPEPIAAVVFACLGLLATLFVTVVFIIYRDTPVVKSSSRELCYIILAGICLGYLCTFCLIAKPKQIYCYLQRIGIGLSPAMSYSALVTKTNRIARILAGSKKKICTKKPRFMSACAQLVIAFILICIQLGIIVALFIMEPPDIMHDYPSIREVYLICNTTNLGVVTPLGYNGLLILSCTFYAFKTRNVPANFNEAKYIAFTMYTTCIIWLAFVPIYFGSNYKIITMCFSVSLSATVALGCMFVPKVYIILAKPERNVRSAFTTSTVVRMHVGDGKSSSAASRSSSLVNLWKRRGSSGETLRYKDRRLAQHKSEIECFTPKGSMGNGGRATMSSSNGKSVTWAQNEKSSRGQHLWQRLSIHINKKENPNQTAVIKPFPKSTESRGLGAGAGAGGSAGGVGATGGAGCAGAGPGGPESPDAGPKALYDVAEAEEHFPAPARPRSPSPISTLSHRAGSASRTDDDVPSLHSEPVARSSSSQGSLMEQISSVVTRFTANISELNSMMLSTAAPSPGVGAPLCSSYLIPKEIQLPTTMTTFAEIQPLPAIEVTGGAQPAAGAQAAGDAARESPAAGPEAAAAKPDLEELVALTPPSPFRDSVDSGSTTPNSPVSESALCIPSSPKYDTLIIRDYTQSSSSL

[2] = molecular target: T1, Metabotropic glutamate receptor 5; test: Positive allosteric modulation of mGlu5 receptor assessed as calcium mobilization; assay type: functional
Target sequence in this assay (P41594 whole entry): as above

[3] = molecular target: T1, Metabotropic glutamate receptor 5; test: Positive allosteric modulation of mGlu5 receptor assessed as calcium mobilization at 30 uM relative to glutamate; assay type: functional
Target sequence in this assay (P41594 21-1212 limits assumed): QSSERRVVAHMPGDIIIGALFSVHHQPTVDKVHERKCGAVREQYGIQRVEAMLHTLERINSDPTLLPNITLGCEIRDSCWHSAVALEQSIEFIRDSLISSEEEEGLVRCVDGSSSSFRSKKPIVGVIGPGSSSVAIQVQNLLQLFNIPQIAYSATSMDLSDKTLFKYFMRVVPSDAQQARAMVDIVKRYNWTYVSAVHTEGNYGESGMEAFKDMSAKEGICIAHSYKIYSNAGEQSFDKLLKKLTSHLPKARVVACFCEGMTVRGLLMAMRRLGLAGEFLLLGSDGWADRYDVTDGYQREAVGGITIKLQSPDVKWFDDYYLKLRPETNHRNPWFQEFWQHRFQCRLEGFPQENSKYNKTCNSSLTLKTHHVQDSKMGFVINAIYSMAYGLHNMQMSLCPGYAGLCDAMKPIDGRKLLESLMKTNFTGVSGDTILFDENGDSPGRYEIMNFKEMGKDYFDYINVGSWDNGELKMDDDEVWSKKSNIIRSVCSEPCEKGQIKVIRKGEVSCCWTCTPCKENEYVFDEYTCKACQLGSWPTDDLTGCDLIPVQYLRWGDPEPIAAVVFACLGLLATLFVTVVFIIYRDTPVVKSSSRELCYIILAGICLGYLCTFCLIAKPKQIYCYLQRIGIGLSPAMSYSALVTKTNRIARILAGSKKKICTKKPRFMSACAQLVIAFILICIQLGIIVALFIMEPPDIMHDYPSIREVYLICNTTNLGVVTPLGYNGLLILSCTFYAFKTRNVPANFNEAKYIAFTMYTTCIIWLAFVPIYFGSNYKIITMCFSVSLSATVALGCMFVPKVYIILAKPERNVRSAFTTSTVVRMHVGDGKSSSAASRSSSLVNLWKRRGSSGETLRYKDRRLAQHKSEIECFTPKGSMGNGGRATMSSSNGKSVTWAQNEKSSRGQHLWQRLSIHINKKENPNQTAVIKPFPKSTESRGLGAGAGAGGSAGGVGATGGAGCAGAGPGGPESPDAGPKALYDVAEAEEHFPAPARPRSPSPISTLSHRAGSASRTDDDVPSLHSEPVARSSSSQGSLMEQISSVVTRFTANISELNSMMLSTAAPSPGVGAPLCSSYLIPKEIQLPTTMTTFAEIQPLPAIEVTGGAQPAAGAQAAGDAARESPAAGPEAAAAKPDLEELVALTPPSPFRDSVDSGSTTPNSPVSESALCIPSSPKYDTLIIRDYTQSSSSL

Rattus norvegicus = test: Antipsychotic activity in rat assessed as reversal of amphetamine-induced hyperlocomotion at 30 mg/kg, ip; assay type: functional, organism-based; parameters: dose 30 mg/kg

EC50 [2]	Activity [3]	SMILES	IC50 [1]	Activity (Rattus norvegicus)
		O=C1c2ccc(C#Cc3cccc(F)c3)nc2CCN1CC1CC1	0.66 µM	
0.066 µM	71%	O=C1NCc2cc(C#Cc3cccc(F)c3)ccc21		
		O=C1NCCc2cc(C#Cc3ccccc3)ccc21		Active
3.7 µM	50%	O=C1NCCc2cc(C#Cc3ccccc3Cl)ccc21		
0.096 µM	97%	CCCCN1CCc2cc(C#Cc3ccccc3)ccc2C1=O		
3.6 µM	84%	O=C1c2ccc(C#Cc3ccccc3)cc2CCN1CCN1CCOCC1		
0.16 µM	97%	CCCN1CCc2cc(C#Cc3ccccc3)ccc2C1=O		Active
0.16 µM	88%	O=C1NC(=O)c2cc(C#Cc3ccc(F)cc3)ccc21		
0.9 µM	76%	O=C1c2ccc(C#Cc3ccccc3)cc2C(=O)N1CCc1ccncc1		
0.85 µM	59%	O=C1NCCc2cc(C#Cc3ccc(F)cc3F)ccc21		
0.29 µM	72%	O=C1NCCc2nc(C#Cc3cccc(F)c3)ccc21		
0.15 µM	80%	O=C1NCCc2cc(C#Cc3ccccc3F)ccc21		
0.26 µM	81%	O=C1NCCc2cc(C#Cc3ccc(F)cc3)ccc21		
0.18 µM	69%	O=C1c2ccc(C#Cc3ccccc3)cc2CCN1CC1CC1		Active
0.35 µM	60%	O=C1NCc2cc(C#Cc3ccc(F)cc3)ccc21		
0.25 µM	53%	CN1CCc2cc(C#Cc3ccccc3)ccc2C1=O		
0.056 µM	46%	CCCCN1CCc2nc(C#Cc3cccc(F)c3)ccc2C1=O		
	69%	O=C1NCc2cc(C#Cc3ccccc3)ccc21		
5.7 µM	44%	O=C1c2ccc(C#Cc3ccccc3)cc2C(=O)N1CCN1CCOCC1		
> 10 µM		O=C1NCCc2cc(C#Cc3ccc(Cl)cc3)ccc21		

EC50 [2]	Activity [3]	SMILES	IC50 [1]	Activity (Rattus norvegicus)
4.9 µM	53%	Cc1cc(C#Cc2ccc3c(c2)CCNC3=O)ccc1F		
0.17 µM	84%	O=C1NC(=O)c2cc(C#Cc3ccc(F)c(F)c3)ccc21		
0.035 µM	99%	O=C1NC(=O)c2cc(C#Cc3cccc(F)c3)ccc21		
> 10 µM		COc1ccc(C#Cc2ccc3c(c2)CCNC3=O)cc1		
0.27 µM	91%	O=C1c2ccc(C#Cc3ccccc3)cc2CCN1CC1CCC1		
0.17 µM	76%	Cc1cccc(C#Cc2ccc3c(c2)CCNC3=O)c1		
4 µM	77%	O=C1c2ccc(C#Cc3ccccc3)cc2CCN1CCN1CCC1		
0.87 µM	40%	O=C1c2ccc(C#Cc3ccccc3)cc2C(=O)N1CCc1ccccn1		
		CN1CCc2nc(C#Cc3cccc(F)c3)ccc2C1=O	0.17 µM	
0.054 µM	40%	CC(C)CN1CCc2nc(C#Cc3cccc(F)c3)ccc2C1=O		
0.012 µM	93%	O=C1NC(=O)c2cc(C#Cc3ccccc3F)ccc21		
0.2 µM	67%	O=C1NCc2cc(C#Cc3ccccc3F)ccc21		
3.4 µM	58%	COc1cccc(C#Cc2ccc3c(c2)CCNC3=O)c1		
0.61 µM	53%	Cc1ccccc1C#Cc1ccc2c(c1)CCNC2=O		
0.55 µM	90%	O=C1c2ccc(C#Cc3ccccc3)cc2CCN1Cc1ccccc1		
0.13 µM	53%	O=C1c2ccc(C#Cc3cccc(F)c3)nc2CCN1CC1CCC1		
0.016 µM	87%	O=C(NC1CCC1)c1ccc(C#Cc2cccc(F)c2)nc1		
0.47 µM	68%	O=C1NCCc2cc(C#Cc3cccc(Cl)c3)ccc21		
0.01 µM	72%	O=C(c1ccc(C#Cc2ccccc2)cc1)N1CCC(O)CC1		

Reference: ChEMBL document CHEMBL1681693, “Synthesis and SAR of centrally active mGlu5 positive allosteric modulators based on an aryl acetylenic bicyclic lactam scaffold” (Bioorg Med Chem Lett, 2011)
